We go through one molecule from paper PMC6530361, “Anti-tumor Efficacy Assessment of the Sigma Receptor Pan Modulator RC-106. A Promising Therapeutic Tool for Pancreatic Cancer” (Frontiers in Pharmacology, 2019).

Where two headings read alike, the source gives them in different places.

One series concerns S2R. Set-up: method as in Rui et al., 2016; Rossi et al., 2017. The note with it: ref Rui et al., 2016; Rossi et al., 2017; cited from earlier work.
The test system of another series is Panc-1. Put plainly: TUNEL assay. The class given is cell-based. The note with it: Panc-1, RC-106 50 μM, 48 h. As to the method: (§1) TUNEL assay was performed as previously described ([Tesei et al., 2007]). Briefly, cells were fixed in 1% formaldehyde in PBS on ice for 15 min, suspended in 70% ice cold ethanol and stored overnight at […]. Cells were then washed twice in PBS and re-suspended in PBS containing 0.1% Triton X-100 for 5 min at […]. Thereafter, samples were incubated in 50 μL of solution containing TdT and FITC conjugated dUTP deoxynucleotides 1:1 (Roche Diagnostic GmbH, Mannheim, Germany) in a humidified atmosphere for 90 min at 37°C in the dark, washed in PBS, counterstained with propidium iodide (2.5 μg/mL, MP Biomedicals, Verona, Italy) and RNAse (10 kU/mL, Sigma–Aldrich) for 30 min at […] in the dark and analyzed by flow cytometry. Flow cytometric analysis was performed using a FACS Canto flow cytometer (Becton Dickinson, San Diego, CA, United States). Data acquisition and analysis were performed using FACSDiva software (Becton Dickinson). Samples were run in triplicate and 10,000 events were collected for each replicate.

A further series relates to Capan-1. Put plainly: TUNEL assay. The note with it: Capan-1, RC-106 50 μM, 48 h. It counts as cell-based. As for the experimental part: as §1
The subject of series [1] is Panc-1, Capan-1, and Capan-2. Put plainly: Real-Time qRT-PCR of ER stress/UPR marker genes, all cell lines. It counts as cell-based. The note with it: exposure to 50 μM; 6, 12, and 24 h. As to the method: (§2) Total cellular RNA was extracted using TRIzol reagent (Life technologies) in accordance with manufacturer’s instruction and quantified using the Nanodrop MD-1000 spectrophotometer system. Reverse transcription reactions were performed in 20 μL of nuclease free water containing 400 ng of total RNA using iScript cDNA Synthesis kit (Bio-Rad Laboratories, Hercules, CA). Real-Time PCR was run using 7500 Fast Real-Time PCR system (Applied Biosystems) and TaqMan assays to detect the expression of SIGMAR1, TMEM97, GRP78/BiP, ATF4, and CHOP genes.
(§3) Reactions were carried out in triplicate at a final volume of 20 μL containing 40 ng of cDNA template, TaqMan universal PCR Master Mix (2X), and selected TaqMan assays (20X). Samples were maintained at 50°C for 2 min, then at 95°C for 10 min followed by 40 amplification cycles at 95°C for 15 s, and at 60°C for 30 s.
(§4) The amount of mRNA was normalized to the endogenous genes GAPDH and HPRT-1.
(In general: Quantitative PCR measures a nucleic acid by following its amplification.)

Another series has as its system Capan-2. Put plainly: Real-Time qRT-PCR of ER stress/UPR marker genes. The class given is cell-based. The note with it: Capan-2, RC-106 50 μM, higher than untreated cells. As to the method: as §2, §3, §4
A short description of series [2]: In vivo pancreas distribution study. Also noted: species or system male CD-1 mice. The note with it: male, CD-1, mouse, ip, mice. As for the experimental part: The experiments were performed in agreement with the Italian Law D. L.vo 4 marzo 2014, n. 26. The treatments involved male CD-1 mice and a unique number on the tail identified each animal. Mice were housed, in groups of four, in cages suitable for the species. After 5 days of adaptation to the local housing conditions, animals were housed in a single, exclusive, air-conditioned room to provide a minimum of 15 air changes/hour. The environmental controls were set to maintain the temperature at around 22°C and the relative humidity within the range 50 to 60%, along with an approximate 12:12 h light/dark cycle automatically controlled. Food (Mucedola Standard GLP diet) and water were available ad libitum throughout the entire duration of the study. All animals were weighted on the day of the treatment.
Mice (n = 4/time point) received an intraperitoneal administration (i.p., 10 mL/kg) of RC-106 at 10 mg/kg. CD-1 male mice were exsanguinated under anesthesia (isoflurane) from the aorta at the following time points: 5, 10, 30, 120, 240, and 480 min. Blood samples were collected in tubes containing heparin, gently mixed and immediately placed on ice. Afterward, they have been centrifuged (3500 × g, at 4°C for 15 min), the obtained plasma has been collected and transferred to individually labeled tubes and frozen at -20°C until the analysis. Plasma samples were used for quantification of RC-106. […] The organ was homogenized using a Velp OV5 homogenizer with 20 mM ammonium formiate buffer in a ratio of 1 g of tissue per 10 mL of buffer.
20 mg/mL stock solution (s.s.) of RC-106 was prepared by dissolving the compound in DMSO. 1 mL of 5% Tween80 in H2O was slowly added to 500 μL of s.s. under stirring. Then 8.5 mL of water was gently spiked to obtain the 1 mg/mL formulation of RC-106.
Standard curves of RC-106 were prepared for plasma and pancreas homogenate, and analyzed together with each QC and unknown sample set. For the PK and pancreas distribution sample analysis, plasma and pancreas homogenate samples (50 μL) were spiked in 200 μL of IS in MeOH (0.1 μg/mL of RC-33), followed by 2 min vortex mixing. Samples were centrifuged and transferred in UFLC vials. 5 μL aliquots of the collected samples were injected into the LC-MS/MS system. Standard calibration graphs were constructed by linear least-squares regression analysis on the analyte/IS area ratio plotted against sample concentration. Calibration ranges were from 5 to 1000 ng/mL for plasma, and from 5 to 500 ng/mL for pancreas homogenate. Accuracy values were determined in triplicates at three different concentrations (high, medium, and low) in the range of linearity of the calibration curves.
Analyses were acquired on a Shimadzu AC20 UFLC system interfaced with an API 3200 Triple Quadrupole detector (AB Sciex). Data acquisition and control were performed using the Analyst^TM 6.1 (Applied Biosystems) Software. A Phenomenex Gemini-NX C18 (50 mm × 2 mm, 5 μm) column was selected to carry out the analytical evaluations. A gradient method was set up (Supplementary Table S1) and it provided the employment of water and methanol, both containing 0.1% of formic acid, at a flow rate of 0.3 mL/min. The LC eluate was directly introduced into the MS interface using the ESI in the positive ion mode. The MRM transitions m/z 181.2 were tracked (Supplementary Table S2).

The term Tmax denotes the time at which the peak concentration occurs. In general, Cmax refers to the peak of the concentration-time curve. For the molecule `C/C(=C\CN1CCC(Cc2ccccc2)CC1)c1ccc2ccccc2c1` [RC-106, (E)-4-benzyl-1-(3-(naphthalen-2-yl)but-2-en-1-yl)piperidine], the S2R modulatory profile result with S2R is “S2R agonist”. For the same molecule, the “percentage of apoptotic cells” value in the series on Panc-1 was 53.25%; in the series on Capan-1 it was 78.55%. Further, the “mRNA expression of ER markers GRP78/BiP, ATF4, and CHOP” value in series [1] is “highly increased”. In addition, the “increase in expression of CHOP mRNA” value in the series with Capan-2 is given as 70 fold. In addition, in series [2] (pancreas, 10 mg/kg, i.p., 10 mg/kg, read-out: AUC0-t, pancreas (converted)), the AUC(0-t) was 28800 ng·h/mL. In addition, the concentration at 5 min in series [2] (pancreas, 5 min after i.p. 10 mg/kg, read-out: pancreas C) came to 25300 ng/g. In addition, in series [2] (pancreas, 10 min after i.p. 10 mg/kg, read-out: pancreas C), the concentration at 10 min turned out to be 13900 ng/g. Besides, the concentration at 30 min in series [2] (pancreas, 30 min after i.p. 10 mg/kg, read-out: pancreas C) is 11100 ng/g. Also, the concentration at 120 min in series [2] (pancreas, 120 min after i.p. 10 mg/kg, read-out: pancreas C) came out at 2710 ng/g. Further, the concentration at 240 min in series [2] (pancreas, 240 min after i.p. 10 mg/kg, read-out: pancreas C) is 2310 ng/g. Besides, in series [2] (pancreas, 480 min after i.p. 10 mg/kg, read-out: pancreas C), the concentration at 480 min came to 995 ng/g. Also, the Tmax in series [2] (pancreas, 10 mg/kg) was 5 min. Also, the highest concentration (Cmax) in series [2] (pancreas, i.p., 10 mg/kg, read-out: Cmax, pancreas) was 25300 ± 5600 ng/g; in series [2] (pancreas, i.p., 10 mg/kg, read-out: Cmax, pancreas (molar)), about 70 µM. Besides, the half-life in series [2] (pancreas, i.p., 10 mg/kg, read-out: t1/2, pancreas) amounted to 4 h. Also, the Kp in series [2] (pancreas/plasma, 10 mg/kg, i.p., 10 mg/kg, read-out: AUC0-t pancreas/AUC0-t plasma) was about 25.
